Test results from patent publication US12427192B2, “Water soluble adjuvant and composition containing same” (Sumitomo Pharma Co., Ltd., priority 2019, dated 2025).

Test system: HLA-A*24:02 transgenic mouse
Assay: Test 3: in vivo CTL induction, cocktail vaccine b, IFNγ ELISPOT
Conditions: FIG. 1; for CTL counts responsive to Peptide SEQ ID No. 2 on adding the compound to cocktail vaccine b: vs cocktail vaccine b alone, 100 ng Example 1 or 69 ng Reference example 12 per body, intradermal, twice
Procedure: Evaluation of In Vivo CTL Induction in HLA-A*24:02 Transgenic Mouse
The in vivo adjuvant activity of the compound of Example 1 and the compound of Reference example 12 was evaluated in the following procedure. To a cocktail vaccine comprising Compound of formula 4 prepared in Reference example 8 and Peptide SEQ ID No. 3 prepared in Reference example 3 with Montanide ISA 51 V (hereinafter, referred to as “cocktail vaccine b”) was added the compound prepared in Example 1 or the compound prepared in Reference example 12 respectively to prepare each vaccine. The vaccine was administered to a HLA-A*24:02 transgenic mouse, and the adjuvant activity of each vaccine was evaluated by the method of testing antigen-specific cytotoxic T-lymphocyte (CTL) induction.
The CYTWNQMNL (SEQ ID No. 2) in Compound of formula 4 corresponds to an antigen peptide derived from an HLA-A*24:02-restricted WT1 protein.
HLA-A*24:02 transgenic mouse (C57BL/6CrHLA-A2402/K^b) expresses a chimeric HLA of a human MHC (HLA-A*24:02) and a mouse MHC (H-2K^b). The mouse can induce CTLs with a peptide which can induce CTLs in HLA-A*24:02-positive human (Int J Cancer. 2002; 100: 565-70).
The character for inducing CTLs specific to the peptide (SEQ ID No. 2) by cocktail vaccine b was evaluated by measuring whether IFNγ can be produced upon stimulation of splenocytes from the mouse with the peptide (SEQ ID No. 2). In addition, the character for exerting in vivo adjuvant activity by the compound in Example 1 or the compound in Reference example 12 was evaluated by comparing the number of CTLs induced by cocktail vaccine b and the number of CTLs induced by the vaccine prepared by adding the compound prepared in Example 1 or the compound in Reference example 12 to cocktail vaccine b, and checking presence or absence of the increase on the number.
Specifically, Compound of formula 4 and Peptide SEQ ID No. 3 were dissolved in DMSO, and then diluted with water for injection to concentrations of Compound of formula 4 of 6 mg/ml and Peptide of SEQ ID No. 3 of 4.5 mg/ml. […]

Structure (SMILES)	increase of the CTL counts (Peptide SEQ ID No. 2) compared with Reference example 12 (added to cocktail vaccine b, 100 ng Example 1 vs 69 ng Reference example 12 per body)	CTL counts responsive to Peptide SEQ ID No. 2 on adding the compound to cocktail vaccine b
CCCCCNc1nc(N)nc(C)c1Cc1ccc(CN(C)CCOCCOCCOCCOCCO)cc1OC [Example 1, 1-(4-{[2-amino-4-methyl-6-(pentylamino)pyrimidin-5-yl]methyl}-3-methoxyphenyl)-2-methyl-5,8,11,14-tetraoxa-2-azahexadecan-16-ol·trifluoroacetate]	more	increased
CCCCCNc1nc(N)nc(C)c1Cc1ccc(CNC)cc1OC [Reference example 12, 5-({2-methoxy-4-[(methylamino)methyl]phenyl}methyl)-6-methyl-N^4-pentylpyrimidine-2,4-diamine, reference compound]	–	increased
